Measured values as given in patent US20260146044A1, “AROMATIC COMPOUND, PHARMACEUTICAL COMPOSITION CONTAINING SAME, AND USE THEREOF” (Increland, priority 2023, published 2026).

How the values were obtained:
[1] = test system: secretion levels of IL-6 in PBMC cells; experiment: Inhibition of R848-induced IL-6 secretion in PBMC (IL-6 ELISA); format: cell-based; details: human PBMC, 20 h compound pre-incubation, 24 h stimulation
Protocol: This experiment was carried out in RPMI 1640 medium containing 10% FBS/1% penicillin/streptomycin, with each of the compounds at an initial test concentration of 1 μM. The compound DMSO was dissolved to form a stock solution, which was gradiently diluted 4-fold with the culture medium to a 4× working solution concentration. The diluted solution was added to a 96-well plate with 50 μL per well. PBMC (batch No.: HPP20062307, Sichuan Hope Bio-tech Co., Ltd.) cells were counted, and diluted to a concentration of 2×10^6/mL. The diluted cells were added to the above compound-containing 96-well plate with 150 μL per well, fully mixed, and incubated in an incubator with 5% CO2 at 37° C. for 20 h. Then, R848 was further added until a final concentration of […], and the cells were further incubated in the incubator with 5% CO2 at 37° C. for additional 24 h. Then, after centrifugation at 2,000 rpm for 4 min, the supernatant was diluted 110×, and detected using an IL-6 ELISA kit. An OD450 value was read, and converted to an IL-6 concentration based on a standard curve, to calculate an IC50 value by fitting a dose-effect curve using GraphPad 5.0.

[2] = microsomes
Protocol: (§1) Blank incubation plates T60 and NCF60 were preheated for 10 min; liver microsome was diluted to 0.56 mg/mL in 100 mM phosphate buffer, 445 μL of the microsome working solution (0.56 mg/mL) was transferred to the preheated “incubation” plates T60 and NCF60, and then the incubation plates T60 and NCF60 were pre-incubated with continuous shaking at 37° C. for 10 min. 54 μL of the liver microsome was transferred to a blank plate, then 6 μL of a NAPDH cofactor was added to the blank plate, and then 180 μL of a quenching solution was added to the blank plate; 5 µL of a composite working solution (100 μM) was added to each of the microsome-containing incubation plates (T60 and NCF60), and the mixture was thoroughly mixed 3 times; 50 μL of a buffer was added to the NCF60 plate, and the mixture was thoroughly mixed 3 times. Timing was started; the plates were incubated with shaking at 37° C. for 60 min; and 180 μL of a quenching solution and 6 μL of the NAPDH cofactor were added to a quenching plate TO. The plates were ensured to be cooled to prevent evaporation. For the T60 plate, the mixture was thoroughly mixed 3 times, and 54 μL of the mixture was immediately transferred to the quenching plate at the time point of 0 min. Then, 44 μL of the NAPDH cofactor was added to the incubation plate (T60). Timing was started; and the plate was incubated with shaking at 37° C. for 60 min. At 5, 15, 30, 45, and 60 min, 180 μL of the quenching solution was added to the quenching plate, mixed once, and then 60 μL of sample was continuously transferred from the plate T60 to the quenching plate at each time point.
(§2) For NCF60, the mixture was mixed once, and at the time point of 60 min, 60 μL of sample was transferred from the NCF60 incubator to the quenching solution-containing quenching plate. All sampling plates were shaken for 10 min, then centrifuged at 4,000 rpm at 4° C. for 20 min. 80 µL of the supernatant was transferred to 240 μL of HPLC water, and mixed using a plate shaker for 10 min.

[3] = microsomes; remark: listed apart in the source
Protocol: as §1, §2

[4] = Pharmacokinetic experiment on SD rats (iv and ig); format: in vivo; details: Sprague-Dawley, rat, plasma; for Cmax: read-out: Peak plasma concentration Cmax
Protocol: Pharmacokinetic experiment on SD rats: in this experiment, two administration modes: oral intragastric administration and tail vein injection were selected. Each of the compounds of the present patented invention was administered at an oral dose of 5 mg/kg at an administration volume of 10 mL/kg. […] Appropriate amounts of Solutol and H2O were proportionally added sequentially, and fully mixed ultrasonically by vortexing, to prepare a clear drug solution at 0.5 mg/mL. ICL004-protodrug was administered by intravenous injection at a dose of 1 mg/kg at an administration volume of 10 mL/kg. Right before use, an appropriate amount of the drug was accurately weighed, to prepare a final volume of 20% PEG 400 and 80% Saline. Appropriate amounts of PEG 400 and Saline were proportionally added sequentially, and fully mixed ultrasonically by vortexing, to prepare a clear drug solution at 0.1 mg/mL.
6 SD rats, each with body weight of 180-220 g, were randomly grouped into 2 groups. After fasting but with free access to water overnight, each […] in the first group was administered by gavage. 200 μL of blood was sampled from its eye socket into an anticoagulant tube respectively at each time point of 15 min, 30 min, 1 h, 2 h, 4 h, 6 h, 8 h, and 24 h after administration. Within one h, each of the blood samples was centrifuged at 10,000 rpm at 4° C. for 20 min (the sample was stored on an ice box prior to the centrifugation), and the supernatant (i.e., the plasma) was stored in a refrigerator at −20° C. for LC-MS/MS analysis. 200 μL of blood was sampled from the eye socket of each […] in the second group into an anticoagulant tube respectively at each time point of 5 min, 15 min, 30 min, 1 h, 2 h, 4 h, 8 h, and 24 h after administration by intravenous injection. Within one h, each of the blood samples was centrifuged at 10,000 rpm at 4° C. for 20 min (the blood sample was stored on an ice box prior to the centrifugation), and the supernatant, i.e., the plasma, was stored in a refrigerator at −20° C. for LC-MS/MS analysis.

[5] = Pharmacokinetic experiment on mice (iv and ig); format: in vivo; details: mouse, plasma, BALB/c Mice; for Cmax: read-out: Peak plasma concentration Cmax
[6] = Metabolic stability in mouse liver microsome; details: liver microsomes
Protocol: as §1, §2

[7] = Metabolic stability in human liver microsome; details: liver microsomes
Protocol: as §1, §2

[8] = test system: secretion levels of IL-6 in PBMC cells; experiment: Inhibition of LPS+IL-1β-induced IL-6 secretion in PBMC (IL-6 ELISA); format: cell-based; details: human PBMC, 24 h compound pre-incubation, 20 h stimulation
Protocol: This experiment was carried out in RPMI 1640 medium containing 10% FBS/1% penicillin/streptomycin, with each of the compounds at an initial test concentration of 1 μM. The compound DMSO was dissolved to form a stock solution, which was gradiently diluted 5-fold with the culture medium to a 4× working solution concentration. The diluted solution was added to a 96-well plate with 50 μL per well. PBMC (batch No.: HPP20062307, Sichuan Hope Bio-tech Co., Ltd.) cells were counted, and diluted to a concentration of 2×10^6/mL. The diluted cells were added to the above compound-containing 96-well plate with 150 μL per well, fully mixed, and incubated in an incubator with 5% CO2 at 37° C. for 24 h. Then, LPS and […] were further added to final concentrations of 10 ng/mL and 20 ng/mL, respectively, and the cells were further incubated in the incubator with 5% CO2 at 37° C. for 20 h. Then, after centrifugation at 2,000 rpm for 4 min, the supernatant was diluted 110×, and detected using an IL-6 ELISA kit. An OD450 value was read, and converted to an IL-6 concentration based on a standard curve, to calculate an IC50 value by fitting a dose-effect curve using GraphPad 5.0.

| Human liver microsome (t1/2, min) [2] [min] | Mouse liver microsome (t1/2, min) [3] [min] | AUC ([4]; iv, 1.00 mg/kg) [ng·h/mL] | AUC(0-inf) ([4]; iv, 1.00 mg/kg) [ng·h/mL] | Cmax ([4]; iv, 1.00 mg/kg) [ng/mL] | bioavailability ([4]; po, ig 5.00 mg/kg vs iv 1.00 mg/kg, read-out: Oral bioavailability Fobs (%)) [%] | AUC ([4]; po, ig, 5.00 mg/kg) [ng·h/mL] | AUC(0-inf) ([4]; po, ig, 5.00 mg/kg) [ng·h/mL] | Cmax ([4]; po, ig, 5.00 mg/kg) [ng/mL] | bioavailability ([5]; po, ig 3.00 mg/kg vs iv 1.00 mg/kg, read-out: Oral bioavailability Fobs (%)) [%] | AUC ([5]; po, ig, 3.00 mg/kg) [ng·h/mL] | AUC(0-inf) ([5]; po, ig, 3.00 mg/kg) [ng·h/mL] | Cmax ([5]; po, ig, 3.00 mg/kg) [ng/mL] | AUC ([5]; iv, 1.00 mg/kg) [ng·h/mL] | AUC(0-inf) ([5]; iv, 1.00 mg/kg) [ng·h/mL] | Cmax ([5]; iv, 1.00 mg/kg) [ng/mL] | half-life at 1 µM [6] [h] | half-life at 1 µM [7] [h] | Structure (SMILES) | IC50 [1] [nM] | IC50 [8] [nM] |
| --- | --- | --- | --- | --- | --- | --- | --- | --- | --- | --- | --- | --- | --- | --- | --- | --- | --- | --- | --- | --- |
| 117.1 | 128.7 |  |  |  |  |  |  |  |  |  |  |  |  |  |  |  |  | COc1cc2nn([C@H]3CC[C@H](CN4CCC(c5cccc6c5c(C)nn6C5CCC(=O)NC5=O)CC4)CC3)cc2cc1NC(=O)c1cccc(C(F)(F)F)n1 (stereo partly drawn) [TM-25] | 28 |  |
|  |  | 2250 | 2300 | 530 | 91.9 | 13800 | 10600 | 1100 | 92.1 | 135000 | 289000 | 12400 | 63100 | 104000 | 6800 | 0.782 | 1.3 | Cc1nn(C2CCC(=O)NC2=O)c2cccc(N3CCN(C[C@H]4CC[C@H](n5cc6cc(NC(=O)c7cnn8cccnc78)c(N7CCOCC7)cc6n5)CC4)CC3)c12 (stereo partly drawn) [TM-33] | 13 | 10.2 |
